# Laboratory results from patent publication US8173169B2, “Formulation and process for the preparation of modafinil” (Hikma Pharmaceuticals, priority 2007, dated 2012).
# Where “and” joins values, the source holds several entries; their conditions need not be identical. Equal entries are not always repeated.
# Experiments:
# Assay type in all cases: physicochemical
# [1] = Particle size analysis by laser diffraction (Malvern Mastersizer 2000)
# Description: As is appreciated by those in the art, different measurement instruments may provide different measurements of the same particles. […] Applicants have therefore performed modafinil particle size analysis using a Malvern Mastersizer 2000 (Worcestershire, UK), and a Coulter Counter (Hiac/Royco instruments, USA) and mechanical sieving methods.
# Malvern Mastersizer utilizes the principle of laser diffraction particle sizing. The principle involved is that during the laser diffraction measurement, particles are passed through a focused laser beam and these particles scatter light at an angle that is inversely proportional to their size. The angular intensity of the scattered light is then measured by a series of photosensitive detectors and the map of scattering intensity versus angle is the primary source of information used to calculate the particle size.
# Particle size measurements using the Hiac/Royco were generated on Modafinil particles of the present invention suspended in saturated water. For Malvern laser sizing, Modafinil particles can either be suspended in sunflower oil or sized in the dry form.
# (§1) Tables 1 and 2 summarize the particle size distribution of modafinil particles B#62605008s obtained by two different sizing methods. Values are reported in microns. The term d (0.1) denotes the diameter of the largest particle found in 10% of the particles sorted in increasing order. The other four terms refer to the diameter of the largest particle found in each 50%, 85%, 90% and 95% of the particles. The term SD denotes the standard deviation and is a measure of the spread of its values and the term RSD refers to the absolute value of the coefficient variation expressed as a percentage. In Table 2 the percentage by weight of particles retained on each mesh cut is reported.
# [2] = Sieve analysis of particle size distribution; details: by weight retained
# Description: In using the Coulter Counter, particles suspended in a weak electrolyte solution are drawn through a small aperture, separating two electrodes between which an electric current flows. The voltage applied across the aperture creates a “sensing zone”. As particles pass through the aperture, they displace their own volume of electrolyte, momentarily increasing the impedance of the aperture. This change in impedance produces a pulse that is digitally processed in real time. The Coulter Principle states that the pulse is directly proportional to the tri-dimensional volume of the particle that produced it. […] Sieve sizing is one of the oldest methods used to determine particle size distributions. Samples of known weight are placed on the largest sieve in a stack of sieves of decreasing size. Upon shaking, sample fractions are caught on the respective sieve corresponding to the size of the particles.
# Table 2 summarizes particle size distribution of Modafinil of the present invention measured by sieve size analysis.
# as §1
# [3] = Dissolution rates of modafinil prepared by different formulation processes
# Description: The choice of excipient is also shown to have a significant influence on the dissolution profiles.
# [4] = single trials 1-3, Malvern Mastersizer 2000
smiles,measurement,setting,value
"NC(=O)C[S+]([O-])C(c1ccccc1)c1ccccc1 (stereo not shown) [Modafinil B# 62605008s, Modafinil]",D (0.35) particle size (% undersize),[1]; average of 3 trials,267.3 microns
same,d (0.1) particle size (% undersize),[1]; average of 3 trials,161.37 microns
same,d (0.5) particle size (% undersize),[1]; average of 3 trials,322.59 microns
same,d (0.85) particle size (% undersize),[1]; average of 3 trials,506.71 microns
same,d (0.9) particle size (% undersize),[1]; average of 3 trials,557.46 microns
same,d (0.95) particle size (% undersize),[1]; average of 3 trials,631.82 microns
same,share of particles greater than 220 um,[1]; conclusion from two sizing methods (Tables 1 and 2),at least 65%
same,D (0.35) particle size (% undersize),[1]; [4],273.94 microns and 266.93 microns and 261.04 microns
same,d (0.1) particle size (% undersize),[1]; [4],172.45 microns and 159.38 microns and 152.26 microns
same,d (0.5) particle size (% undersize),[1]; [4],328.58 microns and 322.53 microns and 316.66 microns
same,d (0.85) particle size (% undersize),[1]; [4],510.24 microns and 507.09 microns and 502.79 microns
same,d (0.9) particle size (% undersize),[1]; [4],561.92 microns and 558.30 microns and 552.16 microns
same,d (0.95) particle size (% undersize),[1]; [4],633.06 microns and 632.46 microns and 629.94 microns
same,% Oversize,[2]; particle size range 0-150 μm,3.51%
same,% Oversize,[2]; particle size range 150-180 μm,1.25%
same,% Oversize,[2]; particle size range 180-250 μm,7.02%
same,% Oversize,[2]; particle size range 250-355 μm,52.88%
same,% Oversize,[2]; particle size range 355-425 μm,17.04%
same,% Oversize,[2]; particle size range 425-500 μm,12.78%
same,% Oversize,[2]; particle size range 500-600 μm,5.26%
same,% Oversize,[2]; particle size range 600-800 μm,0.25%
same,% Oversize,[2]; particle size range >800 μm,0.00%
"NC(=O)C[S+]([O-])C(c1ccccc1)c1ccccc1 (stereo not shown) [Modafinil particles, Modafinil]",% Modafinil Dissolved,[3]; 5 mins,1.80%
same,% Modafinil Dissolved,[3]; 10 mins,5.19%
same,% Modafinil Dissolved,[3]; 15 mins,9.73%
same,% Modafinil Dissolved,[3]; 20 mins,14.31%
same,% Modafinil Dissolved,[3]; 30 mins,23.19%
same,% Modafinil Dissolved,[3]; 40 mins,31.25%
same,% Modafinil Dissolved,[3]; 60 mins,44.09%
same,% Modafinil Dissolved,[3]; 90 mins,71.42%
same,dissolution profile compared with PROVIGIL 200,[3]; result in words,significantly slower
